This passage reports activation, inhibition and percent change from initial value results from patent US4542137A, “Alkylaminodesoxy-1.4;3.6-dianhydrohexitol nitrates substituted by purine bases and pharmaceutical compositions” (priority 1980, dated 1985).

The subject of this test is isolated guinea pig hearts. Briefly: coronary flowthrough-increasing effectiveness on isolated guinea pig hearts according to Langendorff. As to conditions: Cavia porcellus, 25 μg/ml in tyrode solution, Langendorff heart; for activation at 25 µg/mL: read-out: flowthrough (coronary), percentage change in comparison with the initial value. The method, then: After achieving the stationary state in the 30th minute, the hearts were each infused with 50 ml. tyrode solution with a content of test substance of, in each case, 25 μg./ml. Each test substance was tested on 3-6 hearts.
In each case, there was measured the inotropism, the flowthrough and the frequency, whereby the values given in Table I are average values of the percentage changes in comparison with the starting values.

Setting [1] is: read-out: frequency, percentage change in comparison with the initial value.
[2] abbreviates: read-out: inotropism, percentage change in comparison with the initial value.

Like-named read-outs stand apart in the source and are kept apart here.

For the compound `Cn1c(=O)c2c(ncn2CCCN[C@H]2CO[C@H]3[C@@H]2OC[C@@H]3O[N+](=O)[O-])n(C)c1=O` [Example 1d, 5-(3-Theophyllin-7-ylpropyl)-amino-5-desoxy-1.4;3.6-dianhydro-L-iditol 2-nitrate], the activation at 25 µg/mL was found to be 56.4%. For the same compound, under setting [1], the inhibition at 25 µg/mL turned out to be 1.95%. The inhibition at 25 µg/mL under setting [2] came to 1.29%.

Regarding `CN(CCCn1cnc2c1c(=O)n(C)c(=O)n2C)[C@H]1CO[C@H]2[C@@H]1OC[C@@H]2O[N+](=O)[O-]` [Example 9c, 5-[N-Methyl-N-(3-theophyllin-7-ylpropyl)-amino]-5-desoxy-1.4;3.6-dianhydro-L-iditol 2-nitrate], the activation at 25 µg/mL was 40.5%. Also, under setting [1], the percent change from initial value at 25 µg/mL amounted to 0%. In addition, the inhibition at 25 µg/mL under setting [2] amounted to 4.3%.
